Active and inactive are the calls of the source. The rule behind the calls is not given here.
Tests used:
[1] = test system: Trypanosoma brucei rhodesiense; experiment: Antitrypanosomal activity against bloodstream forms of Trypanosoma brucei rhodesiense STIB900; type: functional, organism-based
Trypanosoma cruzi = experiment: Antitrypanosomal activity against trypomastigote forms of Trypanosoma cruzi Tulahuen C4; type: functional, organism-based
Plasmodium falciparum = experiment: Antiplasmodial activity against erythrocytic stages of Plasmodium falciparum NF54; type: functional, organism-based
L6 = experiment: Cytotoxicity against rat L6 cells; type: cell-based
[2] = Selectivity index, ratio of IC50 for rat L6 cells to IC50 for erythrocytic stages of Plasmodium falciparum NF54; type: toxicity, cell-based; settings: read-out: Ratio IC50
Escherichia coli = experiment: Antibacterial activity against Escherichia coli DH10B by agar diffusion assay; type: functional; settings: K-12 substr. DH10B
Bacillus subtilis = experiment: Antibacterial activity against Bacillus subtilis by agar diffusion assay; type: functional, organism-based
Micrococcus luteus = experiment: Antibacterial activity against Micrococcus luteus by agar diffusion assay; type: functional, organism-based
Saccharomyces cerevisiae = experiment: […] activity against Saccharomyces cerevisiae by agar diffusion assay; type: functional, organism-based

C[C@H]1NC(=O)[C@@H](Cc2ccccc2)NC(=O)[C@@H](NC(=O)Cc2ccccc2)[C@@H](C)OC(=O)[C@H](Cc2c[nH]c3ccccc23)NC(=O)[C@@H]2CCCN2C1=O
IC50 [1]: 5.11 µM | IC50 (Trypanosoma cruzi): 56.4 µM | IC50 (Plasmodium falciparum): 0.61 µM | IC50 (L6): 92.2 µM | selectivity ratio [2]: > 151 | Activity (Escherichia coli): inactive | Activity (Bacillus subtilis): inactive | Activity (Micrococcus luteus): inactive | Activity (Saccharomyces cerevisiae): inactive

O=C(Cn1ccnc1[N+](=O)[O-])NCc1ccccc1 [BENZNIDAZOLE]
IC50 (Trypanosoma cruzi): 1.73 µM

CCC(=O)N[C@@H]1C(=O)N[C@H](Cc2ccccc2)C(=O)N[C@H](C)C(=O)N2CCC[C@H]2C(=O)N[C@@H](Cc2c[nH]c3ccccc23)C(=O)O[C@@H]1C
IC50 [1]: 77.6 µM | IC50 (Trypanosoma cruzi): 98.9 µM | IC50 (Plasmodium falciparum): 15.4 µM | IC50 (L6): > 151 µM | Activity (Escherichia coli): inactive | Activity (Bacillus subtilis): inactive | Activity (Micrococcus luteus): inactive | Activity (Saccharomyces cerevisiae): inactive

From ChEMBL document CHEMBL3232714, “Antiparasitic chaiyaphumines from entomopathogenic Xenorhabdus sp. PB61.4” (J Nat Prod, 2014)
